Starred links: 1 amine or outer side, 2 acyl side, 3 side chain; linkers in the order of their positions; H or OH if unused. Positions of bridges follow the written chain, without caps; N, C: chain ends. Non-standard residues stand in square brackets, D forms with d. Residues, ends and D or L forms follow the SMILES beside them. CH2(3,3'-bipyridine-6,6')CH2 = c1cc(C[*:1])ncc1-c1ccc(C[*:2])nc1; Biphenyl(4,4'-CH2)2 = c1cc(-c2ccc(C[*:2])cc2)ccc1C[*:1]
What was measured:
CD1 mice = experiment: Oral glucose tolerance test (OGTT); assay type: in vivo; conditions: 10 μg/mice s.c. 4 hours before oral glucose challenge
[1] = In vitro half-life after incubation with freshly isolated mouse serum (GLP-1R activation assay); assay type: in vitro ADME; conditions: read-out: t1/2 in vitro (converted)
[2] = In vivo pharmacokinetic studies in mice; plasma peptide measured by GLP-1R reporter assay; conditions: mouse, 0.3 mg/kg
Description: All animal care and experimental procedures were approved by the Institutional Animal Care and Use Committee (IACUC) of California Institute for Biomedical Research and strictly followed the NIH guidelines for humane treatment of animals. Female CD-1 mice obtained from Charles River Limited were used after overnight food deprivation for in vivo PK studies. Peptides were dissolved in pH adjusted phosphate buffered saline (PBS, pH=7.4). 100 μL of each peptide (0.3 mg/kg) was administered to each mouse by either i.v. or s.c routes. Food was provided to mice immediately after bleeding at 30 minutes. […] The resulting supernatant plasma was then stored at −80° C. for peptide concentration determination. Peptide concentration in the plasma was determined by in vitro GLP1R activation reporter assay.
HEK 293 cells overexpressing GLP1R and CRE-Luc reporter were treated with plasma samples at different time points (5 point dose response, starting from 1:20 dilution of each plasma sample), incubated for 16 hours in DMEM with 10% FBS at 37° C. with 5% CO2, and the firefly luciferase activity was measured. At the same time, injected peptides were used to obtain standard curves and parameters for Bottom, Top, EC50, Hill Slope. Random luciferase unit (RLU) for each plasma sample was used to calculate the peptide concentrations in plasma (nmol/L), using parameters derived from the standard curve (RLU=Bottom+(Top−Bottom)/(1+10^((Log EC50−Conc.)*Hill Slope)). Peptide concentrations in plasma were obtained and plotted against time points to obtain in vivo half-life of each peptide, using WinNonLin Phoenix software (Pharsight Corp, St. Louis, Mo.).

GLP-1R = target: T1, GLP-1R (Homo sapiens, UniProt P43220); experiment: CRE-driven luciferase reporter assay, HEK293 cells overexpressing GLP-1R; assay type: cell-based
T1 construct: expressed in transfected cells
Description: (§1) The surviving cells (referred to as CRE-HEK293) were expanded and then transfected with a G418 selective mammalian expression plasmid encoding human GCGR or GLP-1R, followed by geneticin selection (Life technologies, Carlsbad, Calif.). Single-colony stable cell lines expressing both CRE-luciferase and GCGR/GLP-1R were then established for in vitro activity assays.
(§2) HEK293-GCGR-CRE and HEK293-GLP-1R-CRE cells were seeded in a white 384-well plate at a density of 5,000 cells per well and cultured for 24 hours in DMEM with 10% FBS at 37° C. with 5% CO2. Cells were treated with different peptides in a dose dependent manner. After 24 hours, 10 μL of Bright-Glo reagent (Promega, Madison, Wis.) was added to each well and luminescence was determined using an Envision multilabel plate reader (PerkinElmer, Waltham, Mass.). The EC50 of each peptide was calculated using GraphPad Prism 6 software (GraphPad, San Diego, Calif.).

[3] = Far-UV circular dichroism measurement; assay type: physicochemical; conditions: measure of relative amounts of 310- and α-helix
Description: The sensitivity and scan rate of the spectrophotometer were set to 100 mdeg and 50 nm/min, respectively. All peptides were dissolved in 0.1×PBS to reach final concentrations of 0.2 mg/mL.

GCGR = target: T2, GCGR (Homo sapiens, UniProt P47871); experiment: CRE-driven luciferase reporter assay, HEK293 cells overexpressing GCGR; assay type: cell-based; conditions: compared to its linear counterpart
T2 construct: expressed in transfected cells
Description: as §1, §2

[4] = iv, intravenously injected, read-out: elimination half-life (converted)
[5] = sc, administered subcutaneously, read-out: half-life (converted)

T1 sequence (P43220 24-463): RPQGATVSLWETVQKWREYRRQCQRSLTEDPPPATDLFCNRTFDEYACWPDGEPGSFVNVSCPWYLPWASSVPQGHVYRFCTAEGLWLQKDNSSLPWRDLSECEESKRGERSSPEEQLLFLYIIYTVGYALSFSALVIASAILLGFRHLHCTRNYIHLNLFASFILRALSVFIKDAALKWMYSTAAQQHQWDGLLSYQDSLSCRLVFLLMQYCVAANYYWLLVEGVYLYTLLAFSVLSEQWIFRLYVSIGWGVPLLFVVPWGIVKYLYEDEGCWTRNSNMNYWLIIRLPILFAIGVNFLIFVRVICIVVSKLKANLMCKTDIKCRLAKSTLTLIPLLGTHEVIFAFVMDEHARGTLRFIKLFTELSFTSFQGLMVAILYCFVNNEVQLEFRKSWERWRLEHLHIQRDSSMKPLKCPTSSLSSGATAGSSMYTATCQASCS
T2 sequence (P47871 26-477): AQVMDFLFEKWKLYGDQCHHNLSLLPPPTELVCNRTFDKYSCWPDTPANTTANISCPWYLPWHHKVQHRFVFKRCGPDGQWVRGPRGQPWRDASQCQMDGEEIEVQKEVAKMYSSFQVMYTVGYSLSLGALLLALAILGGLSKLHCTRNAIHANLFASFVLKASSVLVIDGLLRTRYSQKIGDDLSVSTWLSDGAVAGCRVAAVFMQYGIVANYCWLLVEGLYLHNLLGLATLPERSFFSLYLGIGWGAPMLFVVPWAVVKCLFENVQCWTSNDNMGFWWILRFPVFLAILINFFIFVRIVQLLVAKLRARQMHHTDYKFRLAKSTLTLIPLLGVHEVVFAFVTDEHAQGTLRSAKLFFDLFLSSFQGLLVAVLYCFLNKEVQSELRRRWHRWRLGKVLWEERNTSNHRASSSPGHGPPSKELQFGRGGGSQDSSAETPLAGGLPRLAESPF

| half-life [1] [h] | half-life [2, 4] [h] | half-life [2, 5] [h] | greater efficacy in receptor activation (GLP-1R; compared to peptide 9, GLP-1R and GCGR) | ratio of [θ]222/[θ]208 [3] | increase in activity toward GLP-1R on crosslinking (GLP-1R; compared to its linear counterpart) [fold] | increase in activity toward GCGR on crosslinking (GCGR) [fold] | Structure (SMILES) | blood glucose levels decreased to (CD1 mice) [%] |
| --- | --- | --- | --- | --- | --- | --- | --- | --- |
| 13 | 1.4 | 1.9 | 3-4 fold | ~1.0 |  |  | CC[C@H](C)[C@H](NC(=O)[C@H](CC(N)=O)NC(=O)[C@H](CC(N)=O)NC(=O)[C@H](CCCNC(=N)N)NC(=O)[C@H](CC(N)=O)NC(=O)[C@H](CCCNC(=N)N)NC(=O)[C@H](CCCCN)NC(=O)[C@@H](NC(=O)[C@H](CC(N)=O)NC(=O)[C@H](CCSC)NC(=O)[C@H](CC(C)C)NC(=O)[C@H](Cc1c[nH]c2ccccc12)NC(=O)[C@@H]1CSCc2ccc(cn2)-c2ccc(nc2)CSC[C@H](NC(=O)[C@H](CCC(=O)O)NC(=O)[C@H](CC(=O)O)NC(=O)[C@H](CC(C)C)NC(=O)[C@H](Cc2ccc(O)cc2)NC(=O)[C@H](CCCCN)NC(=O)[C@H](CO)NC(=O)[C@H](Cc2ccc(O)cc2)NC(=O)[C@H](CC(=O)O)NC(=O)[C@H](CO)NC(=O)[C@@H](NC(=O)[C@H](Cc2ccccc2)NC(=O)[C@@H](NC(=O)CNC(=O)[C@H](CCC(N)=O)NC(=O)[C@@H](CO)NC(=O)[C@@H](N)Cc2c[nH]cn2)[C@@H](C)O)[C@@H](C)O)C(=O)N[C@@H](C)C(=O)N[C@@H](C)C(=O)N[C@@H](CCCCN)C(=O)N[C@@H](CCC(=O)O)C(=O)N[C@@H](Cc2ccccc2)C(=O)N[C@@H]([C@@H](C)CC)C(=O)N1)[C@@H](C)O)C(=O)N[C@@H](C)C(N)=O [peptide 11] (H-H[dS]QGTFTSDYSKYLDECAAKEFICWLMNTKRNRNNIA-NH2; linker 17-24 via CH2(3,3'-bipyridine-6,6')CH2) | 45 |
| 13 | 1.2 | 1.9 |  | ~1.0 | 80 | 40 | CC[C@H](C)[C@H](NC(=O)[C@H](CC(N)=O)NC(=O)[C@H](CC(N)=O)NC(=O)[C@H](CCCNC(=N)N)NC(=O)[C@H](CC(N)=O)NC(=O)[C@H](CCCNC(=N)N)NC(=O)[C@H](CCCCN)NC(=O)[C@@H](NC(=O)[C@H](CC(N)=O)NC(=O)[C@H](CCSC)NC(=O)[C@H](CC(C)C)NC(=O)[C@H](Cc1c[nH]c2ccccc12)NC(=O)[C@@H]1CSCc2ccc(cc2)-c2ccc(cc2)CSC[C@H](NC(=O)[C@H](CCC(=O)O)NC(=O)[C@H](CC(=O)O)NC(=O)[C@H](CC(C)C)NC(=O)[C@H](Cc2ccc(O)cc2)NC(=O)[C@H](CCCCN)NC(=O)[C@H](CO)NC(=O)[C@H](Cc2ccc(O)cc2)NC(=O)[C@H](CC(=O)O)NC(=O)[C@H](CO)NC(=O)[C@@H](NC(=O)[C@H](Cc2ccccc2)NC(=O)[C@@H](NC(=O)CNC(=O)[C@H](CCC(N)=O)NC(=O)[C@@H](CO)NC(=O)[C@@H](N)Cc2c[nH]cn2)[C@@H](C)O)[C@@H](C)O)C(=O)N[C@@H](C)C(=O)N[C@@H](C)C(=O)N[C@@H](CCCCN)C(=O)N[C@@H](CCC(=O)O)C(=O)N[C@@H](Cc2ccccc2)C(=O)N[C@@H]([C@@H](C)CC)C(=O)N1)[C@@H](C)O)C(=O)N[C@@H](C)C(N)=O [peptide 9] (H-H[dS]QGTFTSDYSKYLDECAAKEFICWLMNTKRNRNNIA-NH2; linker 17-24 via Biphenyl(4,4'-CH2)2) | 40 |

From patent US9931379B2, “Oxyntomodulin analogs and methods of making and using same” (The Research Foundation for The State University of New York, priority 2015, dated 2018)
